One assay concerns HT29. As to the kind of experiment: cells. The note with it: for IC50: Homo sapiens, HT-29, 2 h. The format is cell-based.
The subject of a further assay is H460. In words: cells. Conditions: for IC50: Homo sapiens, NCI-H460, 2 h. The format is cell-based.

Structures can show the parent of a compound that is named as a salt. Where two headings read alike, the source gives them in different places.

Experimental findings from US8309554B2 (priority 2008, dated 2012) are described below.

By IC50 is commonly meant the concentration that gives 50% inhibition.

For `Nc1ccc(CC(c2ccsc2[N+](=O)[O-])S(=O)(=O)Oc2ccc(N(CCCl)CCCl)cc2)cn1` (centres unmarked) [TH-1255, 3-(4-(N,N-bis-(2-Chloroethyl)amino)phenoxysulfonyl-(2-aminopyridin-5-yl-methyl))methyl-2-nitrothiophene trifluoroacetate], the “HT29 HCR: Air/N2” value in the assay with HT29 is recorded as 16. The IC50 in the assay on HT29 (read-out: 2 hr Air HT29 IC50) was 204 µM; with HT29 (read-out: 2 hr N2 HT29 IC50) it was 13 µM; in the assay on H460 (read-out: 2 hr Air H460 IC50), 61.4 µM; in the assay with H460 (read-out: 2 hr N2 H460 IC50), 2 µM. Moreover, the “H460 HCR: Air/N2” value in the assay with H460 is reported as 30.7.
As for `CS(=O)(=O)N(c1ccc(CC(c2ccsc2[N+](=O)[O-])S(=O)(=O)Oc2ccc(N(CCCl)CCCl)cc2)cn1)S(C)(=O)=O` (centres unmarked) [TH-1257], the IC50 was over 300 µM in the assay on HT29 (read-out: 2 hr Air HT29 IC50), over 300 µM with HT29 (read-out: 2 hr N2 HT29 IC50), 212 µM in the assay with H460 (read-out: 2 hr Air H460 IC50) and 0.5 µM with H460 (read-out: 2 hr N2 H460 IC50). Further, in the assay on H460, the “H460 HCR: Air/N2” value was 424.0.
In the case of `CC(=O)Nc1ccc(CC(c2ccsc2[N+](=O)[O-])S(=O)(=O)Oc2ccc(N(CCCl)CCCl)cc2)cn1` (centres unmarked) [TH-1271], the “HT29 HCR: Air/N2” value in the assay on HT29 is 1.3. For the same molecule, the 50% inhibitory concentration (IC50) with HT29 (read-out: 2 hr Air HT29 IC50) was found to be 977 µM; with HT29 (read-out: 2 hr N2 HT29 IC50) it was 760 µM; in the assay on H460 (read-out: 2 hr Air H460 IC50), 236 µM; with H460 (read-out: 2 hr N2 H460 IC50), 1 µM. Further, the “H460 HCR: Air/N2” value with H460 is 236.
For the molecule `O=[N+]([O-])c1sccc1C(CCS(=O)(=O)c1ccccc1)S(=O)(=O)Oc1ccc(N(CCCl)CCCl)cc1` (centres unmarked) [TH-1278], the IC50 was over 1000 µM in the assay with HT29 (read-out: 2 hr Air HT29 IC50), over 1000 µM with HT29 (read-out: 2 hr N2 HT29 IC50), 61.4 µM in the assay with H460 (read-out: 2 hr Air H460 IC50) and 0.3 µM in the assay on H460 (read-out: 2 hr N2 H460 IC50). Further, the “H460 HCR: Air/N2” value with H460 was 205.
Take `O=[N+]([O-])c1sccc1C(CCS(=O)(=O)Oc1ccccc1)S(=O)(=O)Oc1ccc(N(CCCl)CCCl)cc1` (centres unmarked) [TH-1292, 3-(4-(N,N-bis-(2-Chloroethyl)amino)phenoxysulfonyl-(2-phenoxysulfonylethyl))methyl-2-nitrothiophene]: in the assay with HT29, the “HT29 HCR: Air/N2” value is 158. The IC50 came to 760 µM in the assay with HT29 (read-out: 2 hr Air HT29 IC50), 4.8 µM in the assay with HT29 (read-out: 2 hr N2 HT29 IC50), 195 µM in the assay on H460 (read-out: 2 hr Air H460 IC50) and 1.5 µM in the assay on H460 (read-out: 2 hr N2 H460 IC50). Further, the “H460 HCR: Air/N2” value in the assay on H460 was 127.7.
With `O=[N+]([O-])c1sccc1C(CCS(=O)(=O)N1CCOCC1)S(=O)(=O)Oc1ccc(N(CCCl)CCCl)cc1` (centres unmarked) [TH-1303], the IC50 in the assay with HT29 (read-out: 2 hr Air HT29 IC50) was over 300 µM; with HT29 (read-out: 2 hr N2 HT29 IC50), over 300 µM; in the assay on H460 (read-out: 2 hr Air H460 IC50), 75.5 µM; in the assay on H460 (read-out: 2 hr N2 H460 IC50) it was 1.1 µM. For the same molecule, in the assay on H460, the “H460 HCR: Air/N2” value was determined as 69.
As for `O=[N+]([O-])c1sccc1C(CNS(=O)(=O)c1ccc(F)cc1)S(=O)(=O)Oc1ccc(N(CCCl)CCCl)cc1` (centres unmarked) [TH-1311], the IC50 with HT29 (read-out: 2 hr Air HT29 IC50) is over 300 µM; in the assay on HT29 (read-out: 2 hr N2 HT29 IC50), over 300 µM; in the assay with H460 (read-out: 2 hr Air H460 IC50) it was 57.3 µM; with H460 (read-out: 2 hr N2 H460 IC50) it was 0.4 µM. In addition, the “H460 HCR: Air/N2” value with H460 came out at 143.
Consider `CN(C)c1ccc(CC(c2ccsc2[N+](=O)[O-])S(=O)(=O)Oc2ccc(N(CCCl)CCCl)cc2)cn1` (centres unmarked) [TH-1316], for which the IC50 with HT29 (read-out: 2 hr Air HT29 IC50) was over 300 µM; in the assay on HT29 (read-out: 2 hr N2 HT29 IC50), over 300 µM; in the assay with H460 (read-out: 2 hr Air H460 IC50), 179 µM; in the assay on H460 (read-out: 2 hr N2 H460 IC50), 1 µM. For the same molecule, the “H460 HCR: Air/N2” value in the assay on H460 is on record as 179.
`O=[N+]([O-])c1sccc1C(Cc1ccc(OCCO)cc1)S(=O)(=O)Oc1ccc(N(CCCl)CCCl)cc1` (centres unmarked) [TH-1325]: the IC50 in the assay on HT29 (read-out: 2 hr Air HT29 IC50) is over 300 µM; with HT29 (read-out: 2 hr N2 HT29 IC50), over 300 µM; with H460 (read-out: 2 hr Air H460 IC50), 92.9 µM; in the assay on H460 (read-out: 2 hr N2 H460 IC50) it was 0.1 µM. Besides, the “H460 HCR: Air/N2” value in the assay on H460 is 929.
For the molecule `CN1CCN(S(=O)(=O)CCC(c2ccsc2[N+](=O)[O-])S(=O)(=O)Oc2ccc(N(CCCl)CCCl)cc2)CC1` (centres unmarked) [TH-1326, 3-(4-(N,N-bis-(2-Chloroethyl)amino)phenoxysulfonyl-(2-((N-methylpiperazin-4-yl)sulfonyl)ethyl))methyl-2-nitrothiophene], the “HT29 HCR: Air/N2” value in the assay with HT29 was found to be 48. Further, the IC50 amounted to 126 µM in the assay on HT29 (read-out: 2 hr Air HT29 IC50), 2.6 µM with HT29 (read-out: 2 hr N2 HT29 IC50), 16.6 µM in the assay with H460 (read-out: 2 hr Air H460 IC50) and 0.4 µM in the assay on H460 (read-out: 2 hr N2 H460 IC50). Further, the “H460 HCR: Air/N2” value in the assay on H460 is recorded as 42.
Regarding `O=C1c2ccccc2C(=O)N1CC(c1ccsc1[N+](=O)[O-])S(=O)(=O)Oc1ccc(N(CCCl)CCCl)cc1` (centres unmarked) [TH-1327], the IC50 with HT29 (read-out: 2 hr Air HT29 IC50) is over 1000 µM; in the assay on HT29 (read-out: 2 hr N2 HT29 IC50), over 1000 µM; with H460 (read-out: 2 hr Air H460 IC50), 107 µM; with H460 (read-out: 2 hr N2 H460 IC50) it was 0.6 µM. The “H460 HCR: Air/N2” value in the assay with H460 is 178.
As to `CC(C)Nc1ccc(CC(c2ccsc2[N+](=O)[O-])S(=O)(=O)Oc2ccc(N(CCCl)CCCl)cc2)cn1` (centres unmarked) [TH-1328], the “HT29 HCR: Air/N2” value in the assay on HT29 was determined as 3.3. In addition, the half-maximal inhibitory concentration (IC50) with HT29 (read-out: 2 hr Air HT29 IC50) came to 151 µM; with HT29 (read-out: 2 hr N2 HT29 IC50) it was 46 µM; in the assay with H460 (read-out: 2 hr Air H460 IC50) it was 261 µM; with H460 (read-out: 2 hr N2 H460 IC50), 1.4 µM. Also, the “H460 HCR: Air/N2” value in the assay with H460 was found to be 187.
`Nc1ccc(CC(c2ccsc2[N+](=O)[O-])S(=O)(=O)Oc2ccc(N(CCCl)CCCl)cc2)cc1.O=C(O)C(F)(F)F` (centres unmarked) [TH-1330, 3-(4-(N,N-bis-(2-Chloroethyl)amino)phenoxysulfonyl-(4-aminophenylmethyl))methyl-2-nitrothiophene]: the “HT29 HCR: Air/N2” value with HT29 came to 21. In addition, the IC50 is 186 µM in the assay on HT29 (read-out: 2 hr Air HT29 IC50), 9 µM in the assay on HT29 (read-out: 2 hr N2 HT29 IC50), 228 µM in the assay on H460 (read-out: 2 hr Air H460 IC50) and 0.9 µM with H460 (read-out: 2 hr N2 H460 IC50). In the assay on H460, the “H460 HCR: Air/N2” value was found to be 253.
